Here are results for two compounds from US20050009908A1, “Aqueous dispersion comprising stable nonoparticles of a water-insoluble active and an excipient like middle chain triglycerides (mct)” (priority 2001, published 2005).

≈ marks a conversion by molar mass, not a printed value. Where two headings read alike, the source gives them in different places.

This data set in a line: Solubility of crystalline substance in the inhibitor (HPLC of saturated solution). Format: physicochemical. An excerpt: The mole fraction solubility of the crystalline substantially water-insoluble substance in the inhibitor (x^S1) is simply the number of moles of substance per mole of inhibitor present in a saturated solution of the substance in the inhibitor. As will be realized the equation above is derived for a two component system of a substance and an inhibitor. In those systems where the inhibitor contains more than one compound (for example in the case of a medium chain triglyceride comprising a mixture of triglycerides such as Miglyol 812N, or where a mixture of inhibitors is used) it is sufficient to calculate x^S1 in terms of the “apparent molarity” of the mixture of inhibitors. The apparent molarity of such a mixture is calculated for a mixture of n inhibitor components to be: [formula] • wherein: a, b . . . n are the weight fraction of each component in the inhibitor mixture (for example for component a this is %w/w component a/100); and • Mwa . . . Mwn is the molecular weight of each component a . . . n in the mixture. • x^S1 is then calculated as: [formula]
The mole-fraction solubility of the felodipine/Miglyol 812N (x^sl in Equation I) was determined by magnetically stirring an excess of crystalline felodipine (approx 2-5 times that required for a saturated solution) in Miglyol 812N (5-25 ml) at 350 rpm (protected from light and sealed under a nitrogen atmosphere) for 2 days at room temperature. The resulting mixture was filtered to remove solids (0.2 μm filter) and then analyzed using BPLC to determine the quantity of felodipine dissolved in the Miglyol 812N. […] Miglyol 812N is a mixture of approximately 60% C8-triglyceride (Mw 471) and 40% C10-triglyceride (Mw 555) and has a density of approximately 0.945 g/cm^3. Thus, the apparent molarity of Miglyol 812N is 945/(0.6*471+0.4*555)=1.9].

Setting [1] is: oil or lipid, thermodynamic from solid.

As to `CCc1cccc(C)c1CNc1cc(C(N)=O)cn2c(C)c(C)nc12` [8-[(2-ethyl-6-methylbenzyl)amino]-2,3-dimethylimidazo[1,2-a]pyridine-6-carboxamide], the “mole fraction solubility in Miglyol 812N” value came out at 0.00116 and the “mole fraction solubility in Miglyol 812N/1-decanol mixture” value stood at 0.0103. Under setting [1], this compound had a solubility of 37 mM (≈ 12.4 mg/mL) and a solubility at 2 days of 2.2 mM (≈ 0.74 mg/mL).

With `CCOC(=O)C1=C(C)NC(C)=C(C(=O)OC)C1c1cccc(Cl)c1Cl` (centres unmarked) [felodipine], the solubility at 2 days (Miglyol 812N (medium chain triglyceride mixture), oil or lipid, thermodynamic from solid, room temperature, 2 days stirring, read-out: solubility in Miglyol 812N) worked out at 69 mM (≈ 26.5 mg/mL).
